These results are taken from patent publication US6271266A (Takeda Chemical Industries, Ltd., priority 1996, dated 2001).

In series [1] the test system is patients with Alzheimer's disease. To be noted: 90 mg or 120 mg 3 times a day (270 or 360 mg per day), 6 months; cited from earlier work.
In series [2] the test system is rat hippocampal neurons. Briefly: Number of viable neurons (anti-MAP2 staining) after Aβ1-40. Particulars: Aβ1-40 10 μM, day 4 after addition, FIG. 3. The class given is cell-based. The method, then:
(§1) The cultured rat hippocampal neurons were prepared by the following procedure.
(§2) From the 18-day viviparous SD rat brain, the hippocampus was isolated on ice and treated with 0.25% trypsin and 0.1 mg/ml deoxyribonuclease I in Hank's solution at 37° C. for 10 minutes. The enzyme-treated cells were collected with a filter and suspended in Eagle's MEM containing 50 U/ml penicillin, 50 μg/ml streptomycin, 10% fetal calf serum, and 1% B27 Supplement (GIBCO). The suspension was diluted and seeded on a 48-well plate (COSTAR) precoated with poly-L-lysine, 100,000 cells/300 μl/well. Culture was carried out in the presence of 5% carbon dioxide gas at 37° C. On day 4 of culture, the medium was replaced with Eagle's MEM (MEM-N2) containing 50 U/ml penicillin, 50 μg/ml streptomycin, 10 mM HEPES-Na (pH 7.3) and N2 Supplement. On day 7 of culture, the medium was further replaced with MEM-N2 containing Aβ1-40 (Bachem) and the test drug, and the efficacy of the drug against the toxicity of Aβ1-40 was evaluated.
(§3) The lactate dehydrogenase (LDH) activity released extracellularly from the injured cells into the medium was assayed over 3-5 days after treatment and the toxicity was evaluated using the assayed activity as an indicator. In addition, on day 4 after addition of the drug, the cells were fixed with 4% paraformaldehyde, stained with anti-MAP2 antibody (Amersham) and randomly photographed under the microscope, and the number of neurons per visual field was counted.

For series [3], the system named is rat retinal neuron-neuroblastoma hybrid N18-RE-105 cells. To be noted: cited from earlier work.
The test system of series [4] is rat hippocampal neurons. In words: LDH leakage from cultured rat hippocampal neurons exposed to Aβ1-40. Format: cell-based. The method, then: as §1
as §2, with “On day 4 of culture, the medium was replaced with Eagle's MEM (MEM-N2) containing 50 U/ml penicillin, 50 μg/ml streptomycin, 10 mM HEPES-Na (pH 7.3) and N2 Supplement.” left out
as §3
On the technique in general: LDH leaks from cells whose membrane has failed.

Series [5] concerns Alzheimer type senile dementia. Particulars: cited from earlier work.
The next series has as its system cultured nerve cells. Particulars: cited from earlier work.

With `COC1=C(OC)C(=O)C(CCCCCCCCCCO)=C(C)C1=O` [idebenone, 6-(10-hydroxydecyl)-2,3-dimethoxy-5-methyl-1,4-benzoquinone], in series [1], the GOT time course entry is recorded as “the changes were small with substantially no difference from the control values” and the GPT time course result is listed as “the changes were small with substantially no difference from the control values”. For the same compound, in the series with rat hippocampal neurons [2] (idebenone 100 nM), the neuronal death entry is recorded as “inhibited neuronal death significantly”. The “number of viable cells” value with rat hippocampal neurons [2] (idebenone 100 nM, anti-MAP2 antibody) is recorded as “approximately equal to the number of viable cells in the control group”. Moreover, in series [3], the glutamate-induced neuronal death result is “suppresses glutamate-induced neuronal death” and the “neuroprotection / reactive oxygen species scavenging” value was “exerts the neuroprotection by the reactive oxygen species scavenging activity”. In the series with rat hippocampal neurons [4] (idebenone 100 nM, Aβ1-40 10 μM, 3-5 days following addition, FIG. 2), the “release of LDH” value was “suppressed the release of LDH”. Also, the “efficacy in Alzheimer type senile dementia” value in series [5] (90 mg daily to adult patients) is “efficacy”. Besides, in series [5] (high doses (270 mg-360 mg day per adult)), the “clinical effect in Alzheimer type senile dementia” value is “clinically effective”.

For Aβ1-40: β-amyloid protein 1-40 (Bachem), the number of neurons entry in the series with rat hippocampal neurons [2] was “decline in the number of neurons”. In addition, the “leakage of LDH activity into the medium (toxicity)” value in the series on rat hippocampal neurons [4] (3-5 days after addition of Aβ1-40, FIG. 1) is listed as “dose-dependent toxicity”.

As for β-amyloid, the neuronal toxicity entry with cultured nerve cells is “shows neuronal toxicity”.
